# In ChEMBL document CHEMBL5523697, “Colony Stimulating Factor-1 Receptor: An emerging target for neuroinflammation PET imaging and AD therapy” (Bioorg Med Chem, 2024):
# Legend:
# [1] = target: T1, Macrophage colony-stimulating factor 1 receptor (Homo sapiens, UniProt P07333)
# physchem [2] = details: buffer, pH 7.4
# [3] = target: T1, Macrophage colony-stimulating factor 1 receptor; remark: listed apart in the source
# in vivo [4] = details: mouse, brain
# in vivo [5] = details: mouse, brain, iv, 5 mg/kg
# in vivo [6] = details: mouse, brain, iv, 5 mg/kg; remark: listed apart in the source
# in vivo [7] = details: mouse, brain, iv, 5 mg/kg; remark: listed apart in the source
# physchem [8] = details: octanol/water
# [9] = target: T1, Macrophage colony-stimulating factor 1 receptor; remark: listed apart in the source
# T1 sequence (P07333 whole entry): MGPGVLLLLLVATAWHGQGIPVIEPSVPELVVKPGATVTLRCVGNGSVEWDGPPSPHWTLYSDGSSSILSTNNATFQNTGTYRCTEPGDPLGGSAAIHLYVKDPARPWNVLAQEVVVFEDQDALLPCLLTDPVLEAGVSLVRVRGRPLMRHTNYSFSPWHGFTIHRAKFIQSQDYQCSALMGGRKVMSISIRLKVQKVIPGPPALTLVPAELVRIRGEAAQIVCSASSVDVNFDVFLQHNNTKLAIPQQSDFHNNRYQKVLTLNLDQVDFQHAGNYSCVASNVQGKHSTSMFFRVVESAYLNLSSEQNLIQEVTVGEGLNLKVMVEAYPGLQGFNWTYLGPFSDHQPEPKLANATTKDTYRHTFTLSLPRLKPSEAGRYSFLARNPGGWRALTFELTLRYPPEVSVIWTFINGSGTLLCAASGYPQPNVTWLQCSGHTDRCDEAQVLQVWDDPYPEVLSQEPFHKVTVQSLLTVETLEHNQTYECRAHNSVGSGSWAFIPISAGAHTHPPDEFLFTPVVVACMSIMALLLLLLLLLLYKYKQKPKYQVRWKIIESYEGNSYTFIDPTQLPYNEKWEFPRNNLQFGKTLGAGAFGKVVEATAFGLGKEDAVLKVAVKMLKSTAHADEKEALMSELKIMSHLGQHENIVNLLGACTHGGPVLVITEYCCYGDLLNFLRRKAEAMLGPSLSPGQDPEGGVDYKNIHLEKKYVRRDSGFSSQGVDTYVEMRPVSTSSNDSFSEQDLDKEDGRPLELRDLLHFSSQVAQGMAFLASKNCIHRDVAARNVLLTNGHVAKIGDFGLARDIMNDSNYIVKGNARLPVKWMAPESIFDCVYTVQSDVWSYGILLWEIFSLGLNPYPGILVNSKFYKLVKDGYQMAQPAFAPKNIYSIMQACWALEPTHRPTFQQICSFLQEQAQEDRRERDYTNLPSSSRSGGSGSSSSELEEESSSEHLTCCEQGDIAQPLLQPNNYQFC
compound,measurement,setting,value
CNC(=O)c1cc(Oc2ccc3nc(N(C)[C@@H]4CCCC[C@H]4O)sc3c2)ccn1,Kd,[1],15.7 nM
same,logD,physchem [2],3.67
CNC(=O)c1cc(Oc2ccc3nc(N([11CH3])[C@@H]4CCCC[C@H]4O)sc3c2)ccn1,Kd,[1],26 nM
same,logD,physchem [2],3.38
CCOc1cc2ncc(C(N)=O)c(Nc3ccc(F)cc3F)c2cc1N1CCN([11CH3])CC1,IC50,[3],6 nM
[11CH3]NC(=O)c1cc(Oc2ccc3nc(N[C@@H]4CCCC[C@H]4O)sc3c2)ccn1,tissue uptake at 1 h,in vivo [4],1.18 %ID/g
same,tissue uptake at 0.25 h,in vivo [5],1.35 %ID/g
same,tissue uptake at 5 min,in vivo [6],2 %ID/g
same,tissue uptake at 1 h,in vivo [7],1.3 %ID/g
same,logD,physchem [8],2.26
CCOc1cc2ncc(C(N)=O)c(Nc3ccc(F)cc3F)c2cc1N1CCN(C)CC1,Ki,[9],8 nM
